Experimental data as given in BindingDB's records for doi:10.1016/j.bmcl.2008.02.026 (Irbm/Merck Research Laboratories, 2008).
pIC50: −log10 of the molar value.

Target: T1, Histone deacetylase 6 (Homo sapiens, UniProt Q9UBN7)
T1 sequence (Q9UBN7 whole entry): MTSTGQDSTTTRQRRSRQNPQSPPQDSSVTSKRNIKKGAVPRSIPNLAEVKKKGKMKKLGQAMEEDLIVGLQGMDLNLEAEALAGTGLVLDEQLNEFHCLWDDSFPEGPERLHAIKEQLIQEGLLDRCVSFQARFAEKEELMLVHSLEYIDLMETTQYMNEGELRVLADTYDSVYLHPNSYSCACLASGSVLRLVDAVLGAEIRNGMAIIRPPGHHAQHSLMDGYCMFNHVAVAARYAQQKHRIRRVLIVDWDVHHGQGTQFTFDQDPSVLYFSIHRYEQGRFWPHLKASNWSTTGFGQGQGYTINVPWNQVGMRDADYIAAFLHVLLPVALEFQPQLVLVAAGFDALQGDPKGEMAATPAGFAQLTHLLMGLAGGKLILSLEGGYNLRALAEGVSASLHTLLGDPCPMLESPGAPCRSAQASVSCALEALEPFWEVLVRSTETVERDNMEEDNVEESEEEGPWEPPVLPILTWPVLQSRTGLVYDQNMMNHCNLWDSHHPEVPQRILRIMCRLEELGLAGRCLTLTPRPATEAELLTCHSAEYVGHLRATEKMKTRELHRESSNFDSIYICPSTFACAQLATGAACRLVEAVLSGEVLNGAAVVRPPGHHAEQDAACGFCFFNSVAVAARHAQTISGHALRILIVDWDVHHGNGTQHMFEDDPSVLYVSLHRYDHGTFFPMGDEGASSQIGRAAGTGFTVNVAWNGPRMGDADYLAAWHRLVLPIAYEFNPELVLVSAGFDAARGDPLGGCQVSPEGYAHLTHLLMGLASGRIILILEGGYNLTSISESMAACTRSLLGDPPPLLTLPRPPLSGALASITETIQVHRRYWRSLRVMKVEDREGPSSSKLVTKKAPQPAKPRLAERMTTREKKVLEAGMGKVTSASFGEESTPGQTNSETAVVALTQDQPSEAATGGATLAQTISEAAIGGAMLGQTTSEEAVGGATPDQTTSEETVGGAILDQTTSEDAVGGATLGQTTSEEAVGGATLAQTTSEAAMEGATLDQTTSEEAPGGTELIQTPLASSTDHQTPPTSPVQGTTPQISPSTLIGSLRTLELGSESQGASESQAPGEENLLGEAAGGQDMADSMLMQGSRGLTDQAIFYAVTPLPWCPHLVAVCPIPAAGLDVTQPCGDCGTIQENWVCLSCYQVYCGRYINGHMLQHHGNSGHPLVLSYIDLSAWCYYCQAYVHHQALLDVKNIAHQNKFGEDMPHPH
Assay: HDAC Activity Assay
Conditions: 25 °C
Protocol: The Fluor-de-Lys HDAC activity assay kit (Biomol) was used. Purified recombinant HDAC enzyme was incubated with Fluor-de-Lys substrate in the presence of test compounds. Fluor-de-Lys Developer was then added, and the mixture was incubated for another 10 min at room temperature. Fluorescence was measured using a fluorescent plate reader, with excitation 360 nm and emission 460 nm.

## NC(=O)c1ccc(C(=O)C(F)(F)F)cn1 [5-(2,2,2-trifluoroacetyl)pyridine-2-carboxamide]
  pIC50: 5.38
